Results reported in ChEMBL document CHEMBL1811856 (J Med Chem, 2011).

What was measured:
[1] = organism: Sus scrofa; test: Selectivity ratio Ki for dopamine D2 like receptor in porcine striatal membranes to Ki for dopamine D1 like receptor in porcine striatal membranes; assay type: cell membranes
[2] = Displacement of [3H]spiperone from dopamine D2 like receptor in porcine striatal membranes after 30 mins by scintillation counting; assay type: cell membranes, Sus scrofa, Striatum, Membrane
[3] = Displacement of [3H]SCH-23390 from dopamine D1 like receptor in porcine striatal membranes after 30 mins by scintillation counting; assay type: cell membranes, Sus scrofa, Striatum, Membrane

Compound: C[C@@H]1Cc2cc(O)c(O)cc2[C@H]2c3ccccc3CN[C@@H]21
- Ratio Ki [1]: < 0.74
- Ki [2]: 7.38 µM
- Ki [3]: > 10 µM

Compound: C[C@@H]1C[C@H]2NCc3ccccc3[C@@H]2c2cc(O)c(O)cc21 (racemic)
- Ratio Ki [1]: 20
- Ki [2]: 5.53 µM
- Ki [3]: 0.27 µM

Compound: C[C@H]1C[C@H]2NCc3ccccc3[C@@H]2c2cc(O)c(O)cc21 (racemic)
- Ratio Ki [1]: 3.9
- Ki [2]: 3.63 µM
- Ki [3]: 0.92 µM

Compound: C[C@H]1Cc2cc(O)c(O)cc2[C@H]2c3ccccc3CN[C@@H]21 (racemic)
- Ratio Ki [1]: 1.3
- Ki [2]: 8.67 µM
- Ki [3]: 6.54 µM

Compound: Oc1cc2c(cc1O)[C@H]1c3ccccc3CN[C@@H]1CC2 (racemic) [DIHYDREXIDINE]
- Ki [2]: 0.24 µM
